Experimental data from patent US20240041042A1, “1-(PYRIDYL)-5-AZINYLPYRAZOLE DERIVATIVES, AND THEIR USE FOR CONTROL OF UNDESIRED PLANT GROWTH” (Bayer Aktiengesellschaft, priority 2020, published 2024).

Tests used:
Type in all cases: in vivo
Avena fatua (AVEFA) = experiment: Pre-emergence herbicidal action against AVEFA; settings: visual scoring after about 3 weeks vs untreated controls
In short: (§1)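 Dosages of 320 g/ha or less; pre-emergence; WP or EC in aqueous spray, 0.5% additive, 600 l/ha; greenhouse; visual % effect after ~3 wk relative to control pots.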

[1] = test system: Echinochloa crus-galli (ECHCG); experiment: Pre-emergence herbicidal action against ECHCG
In short: as §1

[2] = test system: Pharbitis purpurea (PHBPU); experiment: Pre-emergence herbicidal action against PHBPU
In short: as §1

[3] = test system: Polygonum convolvulus (POLCO); experiment: Pre-emergence herbicidal action against POLCO
In short: as §1

Viola tricolor (VIOTR) = experiment: Pre-emergence herbicidal action against VIOTR
In short: as §1

[4] = test system: Abutilon theophrasti (ABUTH); experiment: Post-emergence herbicidal action against ABUTH; settings: visual rating about 3 weeks after treatment vs untreated controls (100% = plants have died, 0% = like control plants)
In short: (§2)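 Greenhouse plants sprayed at the one-leaf stage, 2–3 weeks after sowing, with WP or EC formulations plus 0.5% additive at 600 l/ha water. Activity rated visually after about 3 weeks versus untreated controls (100% = dead, 0% = like control), at 320 g/ha or lower.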

[5] = test system: Amaranthus retroflexus (AMARE); experiment: Post-emergence herbicidal action against AMARE
In short: as §2

[6] = test system: Pharbitis purpurea (PHBPU); experiment: Post-emergence herbicidal action against PHBPU
In short: as §2

[7] = test system: Polygonum convolvulus (POLCO); experiment: Post-emergence herbicidal action against POLCO
In short: as §2

[8] = test system: Verconica persica (VERPE); experiment: Post-emergence herbicidal action against VERPE
In short: as §2

[9] = 80 g/ha, visual rating about 3 weeks after treatment vs untreated controls (100% = plants have died, 0% = like control plants)
[10] = 320 g/ha, visual rating about 3 weeks after treatment

SMILES | Pre-emergence action against AVEFA in % (Avena fatua (AVEFA); 320 g/ha) | Pre-emergence action against ECHCG in % ([1]; dosage 80 g/ha) | Pre-emergence action against ECHCG in % ([1]; dosage 320 g/ha) | Pre-emergence action against PHBPU in % ([2]; dosage 320 g/ha) | Pre-emergence action against POLCO in % ([3]; dosage 80 g/ha) | Pre-emergence action against POLCO in % ([3]; dosage 320 g/ha) | Pre-emergence action against VIOTR in % (Viola tricolor (VIOTR); 320 g/ha, Viola tricolor) | Pre-emergence action against VIOTR in % (Viola tricolor (VIOTR); dosage 80 g/ha) | Post-emergence action against ABUTH in % ([4]; 80 g/ha) | Post-emergence action against ABUTH in % ([4]; 320 g/ha) | Post-emergence action against AMARE in % [5, 9] | Post-emergence action against AMARE in % [5, 10] | Post-emergence action against PHBPU in % ([6]; dosage 80 g/ha) | Post-emergence action against PHBPU in % ([6]; dosage 320 g/ha) | Post-emergence action against POLCO in % ([7]; dosage 80 g/ha) | Post-emergence action against POLCO in % ([7]; dosage 320 g/ha) | Post-emergence action against VERPE in % ([8]; 320 g/ha, VERPE) | Post-emergence action against VERPE in % ([8]; dosage 80 g/ha) | Pre-emergence action against PHBPU in % ([2]; dosage 80 g/ha) | Pre-emergence action against AVEFA in % (Avena fatua (AVEFA); 80 g/ha)
COC(=O)[C@@H](C)Oc1nn(-c2ncccc2F)c(-c2ccc(F)nc2)c1I [Example I-341] | 90% | 80% | 100% | 90% | 90% | 100% | 100% | 100% | 80% | 90% | 80% | 80% | 90% | 100% | 80% | 80% | 90% | 90% |  | 
O=C(O)COc1nn(-c2ncccc2F)c(-c2cncc(F)c2)c1C1CC1 [Example I-175] | 90% | 100% | 100% | 90% | 90% | 90% | 100% | 100% | 80% | 80% | 80% | 80% | 80% | 90% | 80% | 80% | 80% | 80% | 80% | 
COC(=O)[C@H](C)COC(=O)COc1nn(-c2ccccn2)c(-c2cncc(F)c2)c1Cl [Example I-192] | 90% | 90% | 100% | 90% | 90% | 100% | 100% | 80% |  | 80% | 80% | 80% | 90% | 90% |  | 80% | 80% | 80% | 90% | 
C[C@@H](Oc1nn(-c2ncccc2F)c(-c2ccc(F)nc2)c1I)C(=O)O [Example I-343] | 90% |  | 100% | 90% | 90% | 100% | 100% | 100% | 80% | 90% | 80% | 80% |  | 90% | 80% | 80% | 80% | 80% | 80% | 80%
COC(=O)COc1nn(-c2ncccc2F)c(-c2cncc(F)c2)c1C1CC1 [Example I-167] | 90% | 100% | 100% | 90% | 90% | 90% | 100% | 100% | 80% | 80% | 80% | 80% | 90% | 90% | 80% | 80% | 80% | 80% | 90% | 90%
C[C@@H](Oc1nn(-c2ncccc2F)c(-c2ccc(F)nc2)c1C1CC1)C(=O)O [Example I-342] | 100% | 100% | 100% | 90% | 90% | 100% | 100% | 100% | 80% | 90% | 90% | 90% | 80% | 90% | 80% | 90% | 90% | 90% | 80% | 90%
CCOC(=O)COc1nn(-c2ccccn2)c(-c2ccc(F)nc2)c1Cl [Example I-85] | 90% | 100% | 100% | 100% |  | 100% | 100% | 100% | 90% | 90% | 90% | 90% | 90% | 90% | 90% | 90% | 90% | 90% | 90% | 
COC(=O)[C@@H](C)Oc1nn(-c2ncccc2F)c(-c2ccc(F)nc2)c1C1CC1 [Example I-307] | 100% | 100% | 100% | 90% | 90% | 100% | 100% | 100% |  | 90% | 80% | 90% | 80% | 90% | 80% | 80% | 90% | 90% |  | 90%
CCOC(=O)[C@@H](C)Oc1nn(-c2ncccc2F)c(-c2ccc(F)nc2)c1C1CC1 [Example I-375] | 100% | 80% | 100% | 90% | 90% | 90% | 100% | 100% | 90% | 90% | 80% | 80% | 80% | 90% | 80% | 90% | 90% | 80% | 80% | 90%
COCCOC(=O)COc1nn(-c2ncccc2C)c(-c2cncc(F)c2)c1Br [Example I-212] | 90% | 100% | 100% | 90% | 90% | 90% | 100% | 100% | 80% | 80% |  | 80% | 90% | 100% | 80% | 90% | 80% | 80% | 90% | 80%
